Results: article PMC6151560, “Antibacterial and Antitubercular Activities of Cinnamylideneacetophenones” (Molecules : A Journal of Synthetic Chemistry and Natural …, 2017)
In brackets after ≈: the same amount, converted by molar mass. Where two headings read alike, the source gives them in different places.

Legend:
[1] = tested on: Escherichia coli (ATCC 10536); experiment: Antibacterial broth microdilution (MIC), E. coli; settings: for MIC: ATCC10536, 24 h, read-out: Ec MIC
[2] = tested on: Mycobacterium tuberculosis H37Rv (ATCC 27294); experiment: Antitubercular REMA (Resazurin Microtiter Assay); type: cell-based; settings: M. tuberculosis H37Rv, REMA, 7 days, lowest concentration giving 90% inhibition of growth, read-out: Mt MIC
[3] = tested on: Staphylococcus aureus (ATCC 14458); experiment: Antibacterial broth microdilution (MIC/MBC), S. aureus; settings: for MIC: ATCC14458, 24 h
[4] = Partition coefficient log Po/w by HPLC-PDA (OECD method); settings: for chromatographic logP: n-octanol/water (from HPLC retention on a C-18 column)
[5] = tested on: Pseudomonas aeruginosa (ATCC 15442); experiment: Antibacterial broth microdilution (MIC), P. aeruginosa; settings: for MIC: ATCC15442, 24 h, read-out: Pa MIC
[6] = tested on: Streptococcus sanguinis (ATCC 10557); experiment: Antibacterial broth microdilution (MIC/MBC), S. sanguinis; settings: for MIC: ATCC10557, 24 h; for MBC: ATCC10557, read-out: Ss MBC
[7] = tested on: Streptococcus mutans (ATCC 25175); experiment: Antibacterial broth microdilution (MIC/MBC), S. mutans; settings: for MIC: ATCC25175, 24 h, read-out: Sm MIC, Streptococcus mutans, broth microdilution, 24 h, tested 3.9 to 500 µM
[8] = DPPH radical scavenging ability; settings: at 1600, 800, 400, and 200 µM; DPPH 100 μM, 30 min, 25 °C
From the text: The low selectivity of the cinnamylideneacetophenones 3 and 4 can be correlated with their phenolic nature. Studies report the ability of phenolic compounds to act on widespread radical processes shared by eukaryotic and prokaryotic cells. We hypothesized this behavior may be responsible by simultaneous activity toward bacteria and pulmonary cells. Therefore, we evaluated the radical scavenging ability of 3 and 4 using DPPH (2,2-diphenyl-1-picrylhydrazyl) protocol. […] Altogether, low selectivity of 3 and 4 cannot be strongly related to radical processes. Quercetin and gallic acid were used as positive controls due to their phenolic nature and potent radical scavenging ability.
Radical scavenging activity of compounds 3 and 4 was determined using 2,2-diphenyl-1-picrylhydrazyl (DPPH). Aliquots of 10 µL of 3, 4, and positive controls (quercetin and gallic acid) at concentrations 1600, 800, 400, and 200 μM (in EtOH) were individually added in 190 µL DPPH (100 μM). The mixtures were incubated in the dark at 25 °C for 30 min. Remaining DPPH was determined spectroscopically at 490 nm by blanking against absolute ethanol. Radical scavenging ability was expressed by using mean values obtained from triplicates as the percentage of radicals reduced by calculating the following equation: DPPH scavenging % = [1 − (Asample/A) × 100], where A is test absorbance without sample (only EtOH and DPPH) and Asample is test absorbance with compounds.

[9] = Mycobacterium tuberculosis, 168 h
[10] = read-out: Sa MIC, Staphylococcus aureus, broth microdilution, 24 h, tested 3.9 to 500 µM
[11] = read-out: Ss MIC, Streptococcus sanguinis, broth microdilution, 24 h, tested 3.9 to 500 µM
[12] = broth microdilution, 24 h, tested 3.9 to 500 µM

O=C(/C=C/C=C/c1ccccc1)c1cccc(C(F)(F)F)c1 [Compound 14, (2E,4E)-1-(3-(trifluoromethyl)phenyl)-5-phenylpenta-2,4-dien-1-one] gave an MIC [1] greater than 500 µM, an MIC [2, 9] greater than 200 µM and an MIC [3, 10] greater than 500 µM. It also gave a chromatographic logP [4] of 3.7, an MIC [5] greater than 500 µM and an MIC [6, 11] greater than 500 µM. For the same compound, the MIC [7] was greater than 500 µM.
O=C(/C=C/C=C/c1ccccc1)c1cccc([N+](=O)[O-])c1 [Compound 15, (2E,4E)-1-(3-nitrophenyl)-5-phenylpenta-2,4-dien-1-one] showed an MIC [1] greater than 500 µM, an MIC [2, 9] greater than 200 µM and an MIC [3, 10] greater than 500 µM. For the same compound, the chromatographic logP [4] was 3.3, the MIC [5] was greater than 500 µM and the MIC [6, 11] was greater than 500 µM. For the same compound, the MIC [7] was greater than 500 µM.
In the case of O=C(/C=C/C=C/c1ccccc1)c1ccc([N+](=O)[O-])cc1 [Compound 16, (2E,4E)-1-(4-nitrophenyl)-5-phenylpenta-2,4-dien-1-one], the MIC [1] is reported as greater than 500 µM, the MIC [2, 9] is reported as greater than 200 µM and the MIC [3, 10] is reported as greater than 500 µM. For the same compound, the chromatographic logP [4] was 3.2, the MIC [5] was greater than 500 µM and the MIC [6, 11] was greater than 500 µM. For the same compound, the MIC [7] was greater than 500 µM.
For Cc1cccc(C(=O)/C=C/C=C/c2ccccc2)c1 [Compound 17, (2E,4E)-1-(3-methylphenyl)-5-phenylpenta-2,4-dien-1-one], the MIC [1] was greater than 500 µM, the MIC [2, 9] was greater than 200 µM and the MIC [3, 10] was greater than 500 µM. The chromatographic logP [4] was 3.6, the MIC [5] was greater than 500 µM and the MIC [6, 11] was greater than 500 µM. It also gave an MIC [7] greater than 500 µM.
With Cc1ccc(C(=O)/C=C/C=C/c2ccccc2)cc1 [Compound 18, (2E,4E)-1-(4-methylphenyl)-5-phenylpenta-2,4-dien-1-one] the MIC [1] was greater than 500 µM, the MIC [2] was 70.9 µM (≈ 17.6 µg/mL) and the MIC [2, 9] was 57.2 to 70.9 µM (≈ 14.2 to 17.6 µg/mL). It also gave an MIC [3, 10] greater than 500 µM, a chromatographic logP [4] of 3.5 and an MIC [5] greater than 500 µM. For the same compound, the MIC [6, 11] was greater than 500 µM and the MIC [7] was greater than 500 µM.
Work on NNC(=O)c1ccncc1 [ISO, isoniazid, reference compound] yielded an MIC [2, 9] of 0.3 µM (≈ 0.0411 µg/mL).
With CC1(C)S[C@@H]2[C@H](NC(=O)Cc3ccccc3)C(=O)N2[C@H]1C(=O)O [PEN, Penicillin G, reference compound] the MIC [1] was 118 µM (≈ 39.5 µg/mL), the MIC [6, 11] was 0.4 µM (≈ 0.134 µg/mL) and the MBC [6] was 0.4 µM (≈ 0.134 µg/mL).
With O=c1c(O)c(-c2ccc(O)c(O)c2)oc2cc(O)cc(O)c12 [Quercetin, reference compound] the “percentages of DPPH scavenging ability” value [8] was no less than 95%.
Compound CN[C@H](CC(C)C)C(=O)N[C@H]1C(=O)N[C@@H](CC(N)=O)C(=O)N[C@H]2C(=O)N[C@H]3C(=O)N[C@H](C(=O)N[C@H](C(=O)O)c4cc(O)cc(O)c4-c4cc3ccc4O)[C@H](O)c3ccc(c(Cl)c3)Oc3cc2cc(c3O[C@@H]2O[C@H](CO)[C@@H](O)[C@H](O)[C@H]2O[C@H]2C[C@](C)(N)[C@H](O)[C@H](C)O2)Oc2ccc(cc2Cl)[C@H]1O [VAN, vancomycin, reference compound] has an MIC [1] of 53.8 µM (≈ 78 µg/mL), an MIC ([3]; read-out: Sa MIC) of 3.3 µM (≈ 4.78 µg/mL) and an MBC ([3]; ATCC14458, read-out: Sa MBC) of 6.8 µM (≈ 9.86 µg/mL). The MIC ([6]; read-out: Ss MIC) was 3.3 µM (≈ 4.78 µg/mL) and the MBC [6] was 3.3 µM (≈ 4.78 µg/mL).
With O=C(O)c1cc(O)c(O)c(O)c1 [gallic acid, reference compound] the “percentages of DPPH scavenging ability” value [8] was no less than 95%.
In the case of “(2E,4E)-1-(3,4-methylenedioxy)-5-phenylpenta-2,4-dien-1-one [Compound 8]”, the “Ec MIC” value ([1]; broth microdilution, 24 h) is reported as greater than 500 µM, the “Sa MIC” value [3, 12] is reported as greater than 500 µM and the “log Po/w” value ([4]; n-octanol/water, HPLC-PDA method, MeOH:H2O (3:1)) is reported as 3.2. The “Pa MIC” value ([5]; broth microdilution, 24 h) was greater than 500 µM, the “Ss MIC” value [6, 12] was greater than 500 µM and the “Sm MIC” value [7, 12] was greater than 500 µM.
